According to ChEMBL document CHEMBL1201862, “PubChem BioAssay data set” (2004):
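Test compounds were applied to cells in 96-well plates for 48 hours at 5 doses. Abbreviation: GI50, concentration required for 50% inhibition of growth.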 Activity calls are given as the source filed them. Rule as the data show it: active = GI50 up to about 1.1 µM and inactive = higher.

Tests used:
Test in all cases: growth of human tumour cells (NCI), 48 h
SW-620 = test system: SW-620
OVCAR-4 = test system: OVCAR-4
UACC-257 = test system: UACC-257
OVCAR-3 = test system: OVCAR-3
SF-539 = test system: SF-539
CCRF-CEM = test system: CCRF-CEM
SK-MEL-2 = test system: SK-MEL-2
NCI-H522 = test system: NCI-H522
IGROV-1 = test system: IGROV-1
HCT-116 = test system: HCT-116
SNB-75 = test system: SNB-75
HL-60 = test system: HL-60
SNB-19 = test system: SNB-19
KM12 = test system: KM12
SR = test system: SR
HOP-92 = test system: HOP-92
NCI-H226 = test system: NCI-H226
RXF 393 = test system: RXF 393
HCC 2998 = test system: HCC 2998

Measured: GI50

O=C(Nc1c(O)[nH]c(=S)[nH]c1=O)c1ccccc1F
inactive: SW-620 > 100 µM | OVCAR-4 > 100 µM | UACC-257 > 100 µM | OVCAR-3 > 100 µM | SF-539 > 100 µM | CCRF-CEM > 100 µM | SK-MEL-2 > 100 µM | NCI-H522 > 100 µM | IGROV-1 > 100 µM | HCT-116 > 100 µM | SNB-75 > 100 µM | HL-60 > 100 µM | SNB-19 > 100 µM | KM12 > 100 µM | SR > 100 µM | HOP-92 > 100 µM | NCI-H226 > 100 µM

COC(=O)C12C34C=CC5(CCC6(C=CC1(CC3)O6)C52C(=O)OC)O4 (stereo unspecified)
inactive: SW-620 > 100 µM | OVCAR-4 > 100 µM | UACC-257 > 100 µM | RXF 393 75 µM | SF-539 > 100 µM | CCRF-CEM > 100 µM | SK-MEL-2 > 100 µM | NCI-H522 > 100 µM | HCC 2998 > 100 µM | IGROV-1 > 100 µM | HCT-116 > 100 µM | HL-60 > 100 µM | SNB-19 > 100 µM | KM12 > 100 µM | SR > 100 µM | HOP-92 > 100 µM | NCI-H226 > 100 µM

C/C(=N/NC(=O)C(N)=O)C(CC(C(=O)Nc1ccccc1C)/C(C)=N\NC(=O)C(N)=O)C(=O)Nc1ccccc1C (stereo unspecified)
inactive: SW-620 > 100 µM | OVCAR-4 > 100 µM | UACC-257 > 100 µM | RXF 393 > 100 µM | OVCAR-3 > 100 µM | SF-539 > 100 µM | CCRF-CEM > 100 µM | SK-MEL-2 > 100 µM | NCI-H522 66.4 µM | HCC 2998 > 100 µM | IGROV-1 > 100 µM | SNB-75 > 100 µM | HL-60 > 100 µM | SNB-19 > 100 µM | KM12 > 100 µM | HOP-92 47.1 µM | NCI-H226 > 100 µM

C=CCCCCCCCCCCCC1CCC(CC)N1 (stereo unspecified)
inactive: SW-620 11.4 µM | OVCAR-4 4.79 µM | UACC-257 13.9 µM | RXF 393 4.86 µM | OVCAR-3 9.44 µM | SF-539 10.6 µM | CCRF-CEM 8.3 µM | SK-MEL-2 13.2 µM | NCI-H522 3.78 µM | HCC 2998 3.37 µM | IGROV-1 10.1 µM | HCT-116 6.04 µM | SNB-75 14.4 µM | HL-60 3.05 µM | SNB-19 15.5 µM | KM12 3.87 µM | SR 2.47 µM | NCI-H226 28.5 µM

N=C(N)N/N=C/c1c(-c2ccc(Cl)c(Cl)c2Cl)nc2sccn12
inactive: SW-620 1.69 µM | OVCAR-4 2.1 µM | UACC-257 1.65 µM | OVCAR-3 1.57 µM | SF-539 3.33 µM | SK-MEL-2 1.74 µM | NCI-H522 1.23 µM | IGROV-1 1.27 µM | HCT-116 1.55 µM | SNB-75 1.49 µM | HL-60 1.63 µM | SNB-19 1.33 µM | KM12 1.58 µM | HOP-92 1.44 µM | NCI-H226 1.68 µM

CCCCCCCCCCCCCCCCOC(=O)c1cc(O)cc(C(=O)OCCCCCCCCCCCCCCCC)c1
inactive: SW-620 > 100 µM | OVCAR-4 > 100 µM | UACC-257 > 100 µM | RXF 393 > 100 µM | OVCAR-3 > 100 µM | CCRF-CEM > 100 µM | SK-MEL-2 > 100 µM | NCI-H522 > 100 µM | HCC 2998 > 100 µM | IGROV-1 > 100 µM | HCT-116 > 100 µM | SNB-75 > 100 µM | HL-60 > 100 µM | SNB-19 > 100 µM | KM12 > 100 µM | HOP-92 > 100 µM | NCI-H226 > 100 µM

Cc1cc(C)c(C(=O)/C(=C/c2ccccc2)c2ccccc2)c(C)c1
inactive: SW-620 60 µM | OVCAR-4 57.9 µM | UACC-257 28.4 µM | RXF 393 46.2 µM | OVCAR-3 51.4 µM | SF-539 57.5 µM | CCRF-CEM 35.1 µM | SK-MEL-2 11.3 µM | NCI-H522 26.2 µM | IGROV-1 86.3 µM | HCT-116 34.8 µM | SNB-75 82.2 µM | HL-60 27.5 µM | SNB-19 > 100 µM | KM12 55.2 µM | SR 36.6 µM | HOP-92 32.8 µM | NCI-H226 50.9 µM

Cc1cc(-c2ccccc2)cc2[n+]1CC=C2.[O-][Cl+3]([O-])([O-])[O-]
inactive: SW-620 > 100 µM | OVCAR-4 > 100 µM | UACC-257 > 100 µM | RXF 393 46.1 µM | SF-539 > 100 µM | SK-MEL-2 > 100 µM | NCI-H522 39.6 µM | HCC 2998 > 100 µM | HCT-116 > 100 µM | SNB-75 35.2 µM | HL-60 72.3 µM | SNB-19 > 100 µM | KM12 > 100 µM | HOP-92 15.5 µM | NCI-H226 45.6 µM

O=C(CC(C(=O)c1ccsc1)c1cccs1)c1ccccc1 (stereo unspecified)
inactive: SW-620 > 100 µM | OVCAR-4 18.3 µM | UACC-257 > 100 µM | RXF 393 14 µM | OVCAR-3 > 100 µM | SF-539 > 100 µM | CCRF-CEM 80.4 µM | NCI-H522 70.1 µM | HCC 2998 > 100 µM | IGROV-1 > 100 µM | HCT-116 71.4 µM | SNB-75 23.7 µM | HL-60 71.4 µM | KM12 59 µM | SR 76.9 µM | HOP-92 > 100 µM | NCI-H226 > 100 µM

O=C1C2C3C=C4c5ccccc5N(c5ccccc5)C4(C2C(=O)N1c1ccc(Br)cc1)[C@H]1C(=O)N(c2ccc(Br)cc2)C(=O)[C@@H]31 (stereo partly specified)
inactive: SW-620 > 100 µM | OVCAR-4 > 100 µM | UACC-257 > 100 µM | RXF 393 > 100 µM | OVCAR-3 > 100 µM | SF-539 > 100 µM | CCRF-CEM > 100 µM | SK-MEL-2 > 100 µM | NCI-H522 > 100 µM | IGROV-1 > 100 µM | HCT-116 > 100 µM | SNB-75 > 100 µM | HL-60 > 100 µM | SNB-19 > 100 µM | KM12 > 100 µM | SR 38.9 µM | HOP-92 84.3 µM | NCI-H226 > 100 µM

COC(=O)[C@@]12OC[C@]34C([C@@H](O)C1O)[C@@]1(C)CC(=O)C(OC(=O)/C=C(/c5ccccc5)C(F)(F)F)=C(C)C1C[C@H]3OC(=O)[C@H](O)[C@H]42 (stereo partly specified)
inactive: OVCAR-4 17.7 µM | UACC-257 8.73 µM | RXF 393 16.9 µM | SF-539 3.79 µM | CCRF-CEM 8.71 µM | SK-MEL-2 7.96 µM | NCI-H522 6.35 µM | HCC 2998 3.44 µM | IGROV-1 3.9 µM | HCT-116 8.63 µM | SNB-75 4.01 µM | HL-60 1.16 µM | SNB-19 4.71 µM | KM12 14.4 µM | SR 3.29 µM | HOP-92 5.86 µM | NCI-H226 6.5 µM
